In ChEMBL document CHEMBL4627257, “Targeting the DNA damage response (DDR) by natural compounds” (Bioorg Med Chem, 2020):
Activity calls are given as the source filed them. The rule behind the calls is not given here.

Tests used:
SU.86.86 [1] = test: Induction of DNA damage in human SU8686 cells assessed as tail DNA formation at IC50 by alkaline Comet assay; assay type: functional, cell-based
SU.86.86 [2] = test: Induction of DNA damage in human SU8686 cells assessed as increase gammaH2AX protein level at IC50 for 24 hrs in presence of 5 uM cisplatin by western blot analysis; assay type: functional, cell-based
SU.86.86 [3] = test: Induction of DNA damage in human SU8686 cells assessed as increase in gammaH2AX nuclear foci under basal condition at IC50 by fluorometry method; assay type: functional, cell-based
SU.86.86 [4] = test: Induction of DNA damage in human SU8686 cells assessed as increase in gammaH2AX phosphorylation at […] at cytotoxic IC50 incubated for 24 hrs by fluorometry method; assay type: functional
SU.86.86 [5] = test: Induction of DNA damage in human SU8686 cells assessed as increase gammaH2AX protein level at IC50 for 24 hrs by western blot analysis; assay type: functional, cell-based
SU.86.86 [6] = test: Induction of DNA damage in human SU8686 cells assessed as increase in gammaH2AX phosphorylation at […] at cytotoxic IC50 in presence of 5 uM cisplatin by fluorometry method; assay type: functional
SU.86.86 [7] = test: Induction of DNA damage in human SU8686 cells assessed as increase gammaH2AX protein level at IC50 for 24 hrs in presence of 0.3 uM doxorubicin by western blot analysis; assay type: functional, cell-based
SU.86.86 [8] = test: Induction of DNA damage in human SU8686 cells assessed as increase in gammaH2AX phosphorylation at […] at cytotoxic IC50 in presence of 0.3 uM doxorubicin by fluorometry method; assay type: functional
SU.86.86 [9] = test: Induction of DNA damage in human SU8686 cells assessed as tail DNA formation at IC50 in presence of 5 uM cisplatin by alkaline Comet assay; assay type: functional, cell-based
[10] = Drug uptake in human SU8686 cells assessed as increase in doxorubicin uptake by flow cytometry analysis; assay type: ADME, cell-based; settings: su.86.86
SU.86.86 [11] = test: Cytotoxicity against human SU8686 cells assessed as cell viability after 72 hrs incubated with resazurin sodium salt by Alamar blue assay; assay type: functional
BXPC-3 = test: Cytotoxicity against human BxPC3 cells assessed as cell viability after 72 hrs incubated with resazurin sodium salt by Alamar blue assay; assay type: functional

SMILES	Activity (SU.86.86 [1])	Activity (SU.86.86 [2])	Activity (SU.86.86 [3])	Activity (SU.86.86 [4])	Activity (SU.86.86 [5])	Activity (SU.86.86 [6])	Activity (SU.86.86 [7])	Activity (SU.86.86 [8])	Activity (SU.86.86 [9])	Drug uptake [10]	Activity (SU.86.86 [11])	Activity (BXPC-3)
CC(C)[C@H]1OC(=O)[C@H](Cc2ccccc2)N(C)C(=O)[C@@H](C(C)C)OC(=O)[C@H](Cc2ccccc2)N(C)C(=O)[C@@H](C(C)C)OC(=O)[C@H](Cc2ccccc2)N(C)C1=O	Active	Active	Active									
C=C1CCC[C@H]2[C@](C)(CC3=C(O)C(=O)C=C(OC)C3=O)[C@@H](C)CC[C@@]12C	Active	Active	Active	>30%	Active	>20%	Active	>20%				
CCCCC/C=C/C(=O)[C@H]1C(=O)O[C@@]2(C)C(=O)C(C=O)=C3C=C(C)OC=C3[C@H]12	Active	Active		>30%								
CC(C)[C@@H]1OC(=O)[C@@H](Cc2ccc(O)cc2)N(C)C(=O)[C@H](C(C)C)OC(=O)[C@@H](Cc2ccccc2)N(C)C(=O)[C@H](C(C)C)OC(=O)[C@@H](Cc2ccccc2)N(C)C1=O	Active	Active		>30%					Active			
CC1=CCC[C@H]2[C@@](C)(CC3=C(O)C(=O)C=C(NCCc4ccccc4)C3=O)[C@@H](C)CC[C@@]12C	Active		Active	>30%	Active	>20%			Active	Active		
COC(=O)[C@@]12Oc3ccc(-c4ccc5c(c4O)C(=O)C4=C(O)C[C@H](C)[C@H](O)[C@]4(C(=O)OC)O5)c(O)c3C(=O)C1=C(O)C[C@H](C)[C@H]2O	Active	Active	Active	>30%		>20%		>20%			3 µM	2.5 µM
COC(=O)C[C@@H]1Cc2cc3c(-c4c(OC)cc(O)c5c(O)c6c(cc45)C[C@@H](CC(=O)OC)OC6=O)c(OC)cc(O)c3c(O)c2C(=O)O1	Active	Active	Active				Active					
